Reference: the supplement of paper PMC10307832

Legend:
Assay in all cases: relative viability (nuclei count vs DMSO), 5 days (fraction); higher = more cells survive
[1] = compound: COc1cc(N2CCC(N3CCN(C)CC3)CC2)ccc1Nc1ncc(Cl)c(Nc2ccccc2S(=O)(=O)C(C)C)n1 [NVP-TAE684] + COc1cc2c(Oc3ccc(NC(=O)C4(C(=O)Nc5ccc(F)cc5)CC4)cc3F)ccnc2cc1OCCCN1CCOCC1 [Foretinib] (partner 0.25 µM)
Procedure, shortened: (§1)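 Nuclei were stained with Hoechst during a one-step fixation (final 0.05% Triton X-100, 1% formaldehyde, 1 ug/ml Hoechst) carried out 5 days after dosing, then counted on 4× images. The cells, lung cancer lines in 1536-well plates, had been dosed by pin tool the day after seeding with one drug alone or a fixed anchor-drug dose plus five library-drug doses (not always all listed) in √10 steps. Relative viability is the nuclei count in treated wells divided by that in vehicle wells, and each value is the median of duplicate plates.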

[2] = compound: COc1cc2/c(=N/c3ccc(Br)cc3F)nc[nH]c2cc1OCC1CCN(C)CC1 [Vandetanib] + O=C(c1cc(Cc2n[nH]c(=O)c3ccccc23)ccc1F)N1CCN(C(=O)C2CC2)CC1 [Olaparib] (partner 8 µM)
Procedure, shortened: as §1

[3] = compound: C#Cc1cccc(Nc2ncnc3cc(OC)c(OCCCCCCC(=O)NO)cc23)c1 [CUDC-101] + CC(C)C[C@H](NC(=O)[C@H](Cc1ccccc1)NC(=O)c1cnccn1)B(O)O [Bortezomib] (partner 0.002 µM)
Procedure, shortened: as §1

[4] = compound: C#Cc1cccc(Nc2ncnc3cc(OC)c(OCCCCCCC(=O)NO)cc23)c1 [CUDC-101] + C[C@@H](Oc1cc(-c2cnn(C3CCNCC3)c2)cnc1N)c1c(Cl)ccc(F)c1Cl [Crizotinib] (partner 1 µM)
Procedure, shortened: as §1

| Cell Line | relative viability ([1]; first compound 0.2 µM) | relative viability ([1]; first compound 0.6325 µM) | relative viability ([1]; first compound 2 µM) | relative viability ([2]; first compound 0.02 µM) | relative viability ([2]; first compound 0.06325 µM) | relative viability ([2]; first compound 0.2 µM) | relative viability ([2]; first compound 0.6325 µM) | relative viability ([2]; first compound 2 µM) | relative viability ([3]; first compound 0.01 µM) | relative viability ([3]; first compound 0.03162 µM) | relative viability ([3]; first compound 0.1 µM) | relative viability ([3]; first compound 0.3162 µM) | relative viability ([3]; first compound 1 µM) | relative viability ([4]; first compound 0.01 µM) | relative viability ([4]; first compound 0.03162 µM) | relative viability ([4]; first compound 0.1 µM) | relative viability ([4]; first compound 0.3162 µM) | relative viability ([4]; first compound 1 µM) |
| --- | --- | --- | --- | --- | --- | --- | --- | --- | --- | --- | --- | --- | --- | --- | --- | --- | --- | --- |
| RERF-LC-KJ | 0.853 | 0.931 | 0.771 | 0.891 | 0.959 | 0.898 | 0.75 | 0.83 | 1.2 | 1.07 | 1.09 | 1.14 | 0.97 | 0.771 | 0.903 | 0.788 | 0.825 | 0.686 |
| SK-LU-1 | 0.947 | 0.766 | 0.469 | 0.496 | 0.313 | 0.54 | 0.437 | 0.597 | 1.55 | 1.03 | 1.48 | 0.829 | 0.976 | 1.13 | 1.03 | 0.795 | 0.77 | 0.579 |
| SW 1573 | 0.916 | 0.951 | 0.599 | 0.434 | 0.416 | 0.393 | 0.521 | 0.489 | 1.23 | 1.13 | 1.13 | 1.27 | 0.914 | 0.805 | 0.804 | 0.927 | 1.09 | 0.423 |
